From patent US7655632B2, “Pyrazole derivative, medicinal composition containing the same, medicinal use thereof, and intermediate for production thereof” (Kissei Pharmaceutical Co., Ltd., priority 2002, dated 2010) come the findings set out here.

The target of test [1] is T1, human SGLT1 (Homo sapiens, UniProt P13866).
T1 construct: expressed in transfected cells
T1 sequence (P13866 1-664): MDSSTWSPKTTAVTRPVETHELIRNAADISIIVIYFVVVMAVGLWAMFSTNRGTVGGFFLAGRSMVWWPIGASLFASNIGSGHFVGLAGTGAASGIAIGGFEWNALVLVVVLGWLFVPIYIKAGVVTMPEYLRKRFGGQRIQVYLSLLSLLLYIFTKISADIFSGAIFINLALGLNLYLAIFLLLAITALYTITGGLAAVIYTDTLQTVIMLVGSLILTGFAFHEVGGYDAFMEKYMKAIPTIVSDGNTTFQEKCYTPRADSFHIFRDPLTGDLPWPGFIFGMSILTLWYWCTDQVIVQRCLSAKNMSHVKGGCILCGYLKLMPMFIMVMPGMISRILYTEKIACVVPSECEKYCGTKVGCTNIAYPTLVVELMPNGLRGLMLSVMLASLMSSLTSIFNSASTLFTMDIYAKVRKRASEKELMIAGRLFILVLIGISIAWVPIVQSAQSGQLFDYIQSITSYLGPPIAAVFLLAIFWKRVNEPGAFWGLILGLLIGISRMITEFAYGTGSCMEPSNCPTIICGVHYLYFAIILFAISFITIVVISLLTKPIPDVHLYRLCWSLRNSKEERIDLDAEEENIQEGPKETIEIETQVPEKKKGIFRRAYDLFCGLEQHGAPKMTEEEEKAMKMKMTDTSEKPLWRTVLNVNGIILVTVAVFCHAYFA
Kind of test: Assay for inhibitory effects on human SGLT1 activity (uptake of methyl-α-D-glucopyranoside in CS1-5-11D cells). The class given is cell-based. As to conditions: CHO-K1 cells stably expressing human SGLT1 (CS1-5-11D); 1 mM α-MG uptake, 37° C., 1 hour. The protocol:
Assay for Inhibitory Effects on Human SGLT1 Activity
1) Cloning and Construction of the Vector Expressing Human SGLT1
The cDNA library was prepared for PCR amplification by reverse transcription from total RNA deprived from human small intestine (Ori gene) using oligo-dT as a primer. Using this cDNA library as a template, the DNA fragment coding 1 to 2005 bp of human SGLT1 (ACCESSION: M24847), which was reported by Hediger et al., was amplified by PCR method and inserted into the multi-cloning site of pcDNA3.1(−) (Invitrogen). The DNA sequence inserted was perfectly matched to the previously reported sequence.
2) Establishment of Cell Line Stably Expressing Human SGLT1
The expression vector of human SGLT1 was digested by Sca I into a linear DNA. The linear DNA was transfected into CHO-K1 cells by means of lipofection (Effectene Transfection Reagent: QIAGEN). Neomycin resistant cell lines were selected by culture in the medium containing G418 (1 mg/mL, LIFE TECHNOLOGIES), and then the activity against the uptake of methyl-α-D-gluco-pyranoside was measured by the method described below. […] CS1-5-11D cells were cultured in the presence of G418 at 200 μg/mL.
3) Measurement of the Inhibitory Activity Against the Uptake of methyl-α-D-glucopyranoside (α-MG)
CS1-5-11D cells were seeded into a 96-well culture plate at a density of 3×10^4 cells/well and cultured for 2 days, and were used in the uptake assay. A mixture of non-labeled (Sigma) and ^14C-labeled α-MG (Amersham Pharmcia Biotec) was added to the uptake buffer (pH 7.4; containing 140 mM sodium chloride, 2 mM potassium chloride, 1 mM calcium chloride, 1 mM magnesium chloride, 10 mM 2-[4-(2-hydroxyethyl)-1-piperazinyl]ethane sulfonic acid, and 5 mM tris(hydroxymethyl)aminomethane) at the final concentration of 1 mM. A test compound was dissolved in dimethyl sulfoxide, and then appropriately diluted with distilled water. The test compound solution was added to the uptake buffer containing 1 mM α-MG, and designated as a measurement buffer. For the control group, the measurement buffer without any test compound was prepared. For measuring the basal uptake, a basal uptake measurement buffer which contains 140 mM chorine chloride instead of sodium chloride was prepared. After removing the culture medium of CS1-5-11D cells, 180 μL of the pre-treatment buffer (the basal uptake buffer without α-MG) was added to each well and incubated at 37° C. for 10 minutes. After repeating the same treatment, the pre-treatment buffer was removed. To each well was added 75 μL of the measurement buffer or the basal uptake buffer was added and incubated at 37° C. for 1 hour. After removing the measurement buffer, cells were washed twice with 180 μL per well of the washing buffer (the basal uptake buffer containing 10 mM non-labeled α-MG). The cells were solubilized by 75 μL per well of 0.2 mol/L sodium hydroxide. The cell lysates were transferred into PicoPlates (Packard), and then added 150 μL of MicroScint-40 (Packard) and mixed. Radioactivity was measured by means of micro-scintillation counter TopCount (Packard). One hundred % was set to the difference between the uptake in the control group and the basal uptake, and the uptake of methyl α-D-gluco-pyranoside at each drug concentration were calculated.

For test [2], the system named is diabetic rats. The test is described as follows: Assay for inhibitory effects on blood glucose level increase in rats (liquid meal tolerance test in diabetic rat model). The class given is in vivo. As to conditions: test compound 1 mg/kg orally, liquid meal 17.25 kcal/kg, mean ± S.E.; for Plasma glucose concentration 0.5 h: 0.5 hour after drug administration; for Plasma glucose concentration 1 h: 1 hour after drug administration; for Plasma glucose concentration 0 h: pretreatment (0 h). The procedure: Assay for Inhibitory Effects on Blood Glucose Level Increase in rats
1) Preparation of Diabetic Rat Model
Male wistar rats (Japan Charles River), aged 8 weeks old, were injected nicotinamide (230 mg/kg) intraperitoneally. Fifteen minutes after injection, they were injected streptozotocin (85 mg/kg) intravenously from tail vain under anesthesia with ether. After a week, rats were fasted overnight and then glucose tolerance test (2 g/kg) was done.
2) Liquid Meal Tolerance Test
After overnight fasted, the diabetic rats were orally administered a test compound (1 mg/kg), which was dissolved in distilled water, in the drug-treating group, or distilled water alone in a control group. Immediately after the compound administration, 17.25 kcal/kg of liquid meal (No. 038, Control diet, assorted with dextrin and maltose; Oriental Yeast Co., Ltd.) was loaded orally. The blood was collected from tail artery immediately before and after administration with the time course, and treated with heparin immediately. The blood was centrifuged, and the plasma was collected to quantify the plasma glucose concentration by glucose oxidase method. The values in the table are presented as the mean ±S.E.

For the molecule `CC(C)c1[nH]nc(O[C@@H]2O[C@H](CO)[C@H](O)[C@H](O)[C@H]2O)c1Cc1ccc(CCCC(=O)NC(C)(C)C(=O)N2CCN(C)CC2)cc1` [Example 61, 3-(β-D-Galactopyranosyloxy)-5-isopropyl-4-{[4-(3-{1-[(4-methylpiperazin-1-yl)carbonyl]-1-(methyl)ethylcarbamoyl}-propyl)phenyl]methyl}-1H-pyrazole], in test [1], the IC50 is 18 nM. Moreover, in test [2], the “Plasma glucose concentration 0.5 h” value amounted to 136 ± 6 mg/dL, the “Plasma glucose concentration 1 h” value is 172 ± 37 mg/dL and the “Plasma glucose concentration 0 h” value was 116 ± 6 mg/dL.
In the case of `CC(C)c1[nH]nc(O[C@@H]2O[C@H](CO)[C@@H](O)[C@H](O)[C@H]2O)c1Cc1ccc(CCCC(=O)NC(C)(C)C(=O)NCCO)cc1` [Example 30, 3-(β-D-Glucopyranosyloxy)-4-[(4-{3-[1-(2-hydroxyethyl-carbamoyl)-1-(methyl)ethylcarbamoyl]propyl}phenyl)methyl]-5-isopropyl-1H-pyrazole], inhibition in test [1] was half-maximal at 52 nM (IC50). In addition, in test [2], the “Plasma glucose concentration 0.5 h” value was determined as 163 ± 8 mg/dL, the “Plasma glucose concentration 1 h” value came out at 187 ± 9 mg/dL and the “Plasma glucose concentration 0 h” value is listed as 121 ± 6 mg/dL.
